Laboratory results taken from US20240024093A1, “INTRAOCULAR DRUG DELIVERY SYSTEMS AND METHODS OF USE” (SpyGlass Pharma, Inc., priority 2022, published 2024).

Assays:
[1] = daily release or elution of Bimatoprost in vitro versus time (FIG. 8); type: physicochemical; settings: four-hundred-day study
Source text: FIG. 8 is an exemplary graph of daily release or elution of a pharmaceutical or therapeutic agent in vitro versus time. […] The target release rate in this study on rabbits was 0.050 to 0.100 micrograms per day.

[2] = Bimatoprost sampled in the aqueous humor of dogs over time (FIG. 9); type: in vivo
Source text: FIG. 9 is an exemplary graph of a therapeutic agent delivered to the aqueous humor of an eye of canines versus time.
In this example, there was a low dose group of dogs (Grp 1), a mid-dose group of dogs (Grp 2), a high dose group of dogs (Grp 3), and a placebo group of dogs (Grp 4).

average release rate [1]: less than 0.100 micrograms per day
level of Bimatoprost in the aqueous humor (elution kinetics) ([2]; low dose (Grp 1), mid-dose (Grp 2), high dose (Grp 3) groups, study period of about one hundred thirteen days): zero-order elution rate
mean measurements of Bimatoprost in the aqueous humor (dose dependence) ([2]; low, mid and high dose groups, FIG. 9): increased with the higher doses
Compound: CCNC(=O)CCC/C=C\C[C@@H]1[C@@H](/C=C/[C@@H](O)CCc2ccccc2)[C@H](O)C[C@@H]1O [Bimatoprost]
release rate over the study (release kinetics) [1]: essentially a zero-order and/or a steady state elution rate
